Experiments:
H1299 cells = experiment: MTT cell proliferation assay, H1299; type: cell-based, human; conditions: for inhibition at 10 µM / IC50: Homo sapiens, NCI-H1299, 48 h; for inhibition at 10 µM: read-out: H1299 cells inhibition rate; for inhibition at 10 µM / H1299 cells inhibition rate: 10 μM; for H1299 cells inhibition rate: 48 h; for IC50: read-out: IC50 (mean ± SD) H1299
Protocol: (§1) Beas-2b, A431, A549 and H1299 cells were cultured in 96-well plates (5 × 10^3 cells/well) for 16 h, respectively. Subsequently, positive compound 4i and 25 newly synthesized compounds were added at a final concentration of 10 μM or gradient concentrations (0.01, 0.1, 0.5, 1, 5 and 10 μM), co-incubated with the cells for 48 h. MTT (M8180, Solarbio) solutions (5 mg/mL) were then added and incubated for 4 h in the dark. Then, formazan crystals were dissolved with DMSO (D8371, Solarbio), followed by shaking on a shaker (DRAGONLAB, China) for 10 min. Finally, absorbance at 490 nm wavelength for each well was measured with Microplate reader (Molecular Devices, United States) ([Tang et al., 2020]; [Lee et al., 2021]). The results are expressed as mean ± SD from three independent experiments. Cells inhibition rates or IC50 values were calculated using GraphPad Prism 9.5.0.

Beas-2b cells = experiment: MTT cell proliferation and toxicity assay, Beas-2b; type: cell-based, human; conditions: 48 h; for inhibition at 10 µM: Homo sapiens, BEAS-2B, read-out: Beas-2b cells inhibition rate
Protocol: as §1

A431 cells = experiment: MTT cell proliferation assay, A431; type: cell-based, human; conditions: for inhibition at 10 µM / IC50: Homo sapiens, A-431, 48 h; for inhibition at 10 µM: read-out: A431 cells inhibition rate; for inhibition at 10 µM / A431 cells inhibition rate: 10 μM; for A431 cells inhibition rate: 48 h; for IC50: read-out: IC50 (mean ± SD) A431
Protocol: as §1

[1] = Oil-water partition coefficient (log P) measurement; type: physicochemical; conditions: n-octanol/water, room temperature
Protocol: The partition coefficient between n-octanol and water (log Po/w) is the classical descriptor for Lipophilicity ([Daina et al., 2017]). The test methodology followed previously published protocols ([Wang et al., 2021]). At room temperature, two large Erlenmeyer flasks were taken and filled with n-octanol and water, respectively. The flasks were placed in a constant temperature shaker at 150 rpm for 24 h to saturate the solvents. The mixtures were then transferred to separating funnels under normal pressure to obtain water-saturated n-octanol and n-octanol-saturated water for subsequent use. The target compound (2 mg) was accurately weighed and placed in a 2 mL brown volumetric flask. Anhydrous methanol was added to ultrasonically dissolve the compound, and the mixture was diluted to volume and thoroughly shaken to prepare a 1 mg/mL stock solution. The stock solution was further diluted to obtain 1, 1.5, 2, 2.5, 5 and 10 μg/mL reference solutions for construction of a standard curve using a UV-visible spectrophotometer. An excess amount of the analyte was dissolved in water-saturated n-octanol, and the mixture was shaken at 150 rpm for 24 h at constant temperature to obtain a saturated solution. The saturated solution was allowed to stand, centrifuged, and 1 mL of the supernatant was transferred to a 4 mL centrifuge tube. N-octanol saturated water (1 mL) was added, and the mixture was shaken at 150 rpm for 24 h at constant temperature. After standing for 8 h, the mixture was centrifuged. Appropriate amounts of the n-octanol phase before and after equilibration were diluted with methanol, and concentrations were determined from the standard curve to obtain C0 and C1. The concentration in the n-octanol saturated aqueous phase, Cw, was calculated as Cw = C0 - C1. Thus, log Po/w = […].

A549 cells = experiment: MTT cell proliferation assay, A549; type: cell-based, human; conditions: for inhibition at 10 µM / IC50: Homo sapiens, A549, 48 h; for inhibition at 10 µM: read-out: A549 cells inhibition rate; for inhibition at 10 µM / A549 cells inhibition rate: 10 μM; for A549 cells inhibition rate: 48 h; for IC50: read-out: IC50 (mean ± SD) A549
Protocol: as §1

Row | logP [1] | IC50 (H1299 cells) [µM] | IC50 (A431 cells) [µM] | IC50 (A549 cells) [µM] | log P [1] | SMILES | inhibition at 10 µM (H1299 cells) [%] | inhibition at 10 µM (Beas-2b cells) [%] | inhibition at 10 µM (A431 cells) [%] | inhibition at 10 µM (A549 cells) [%] | H1299 cells inhibition rate (H1299 cells) [%] | A431 cells inhibition rate (A431 cells) [%] | A549 cells inhibition rate (A549 cells) [%] | Beas-2b cells inhibition rate (Beas-2b cells; 10 μM) [%]
1 | 3.51 ± 0.19 | – | – | – | – | O=[N+]([O-])c1ccccc1COc1ccccc1-c1nc2ccccc2s1 [A2, 2-(2-((2-nitrobenzyl)oxy)phenyl)benzo[d]thiazole] | 42.4 ± 1.26 | 17.3 ± 3.26 | 35.8 ± 2.03 | 33.1 ± 2.34 | – | – | – | –
2 | 3.63 ± 0.16 | – | – | – | – | O=C1c2ccccc2C(=O)N1CCCOc1ccccc1-c1nc2ccccc2s1 [A3, 2-(3-(2-(benzo[d]thiazol-2-yl)phenoxy)propyl)isoindoline-1,3-dione] | 30.9 ± 0.77 | 5.25 ± 0.39 | 34.2 ± 1.15 | 28.5 ± 2.21 | – | – | – | –
3 | 3.74 ± 0.35 | – | – | – | – | O=[N+]([O-])c1ccc(COc2ccccc2-c2nc3ccccc3s2)cc1 [A4, 2-(2-((4-nitrobenzyl)oxy)phenyl)benzo[d]thiazole] | 39.4 ± 1.2 | 10.3 ± 0.64 | 35.8 ± 1.02 | 33.3 ± 1.36 | – | – | – | –
4 | 4.51 ± 0.24 | – | – | – | – | Clc1cccc(COc2ccccc2-c2nc3ccccc3s2)c1 [A5, 2-(2-((3-chlorobenzyl)oxy)phenyl)benzo[d]thiazol] | 35.3 ± 2.24 | 18.2 ± 2.23 | 45.7 ± 0.87 | 47.6 ± 1.24 | – | – | – | –
5 | 4.72 ± 0.28 | – | – | – | – | Cc1ccc(COc2ccccc2-c2nc3ccccc3s2)cc1 [A6, 2-(2-((4-methylbenzyl)oxy)phenyl)benzo[d]thiazole] | 33.9 ± 0.68 | 15.1 ± 3.28 | 27.7 ± 1.62 | 20.7 ± 2.31 | – | – | – | –
6 | 3.95 ± 0.15 | – | – | – | – | c1ccc(COc2ccccc2-c2nc3ccccc3s2)cc1 [A7, 2-(2-(benzyloxy)phenyl)benzo[d]thiazole] | 26.5 ± 1.11 | 11.4 ± 2.65 | 15.3 ± 2.21 | 12.2 ± 3.42 | – | – | – | –
7 | 3.44 ± 0.22 | – | – | – | – | N#Cc1ccc(COc2ccccc2-c2nc3ccccc3s2)cc1 [A8, 4-((2-(benzo[d]thiazol-2-yl)phenoxy)methyl)benzonitrile] | 37.3 ± 2.3 | 14.2 ± 3.65 | 28.6 ± 1.24 | 24.4 ± 1.22 | – | – | – | –
8 | 3.47 ± 0.27 | – | – | – | – | Fc1ccc2nc(NCCc3ccccc3)sc2c1 [B1, 6-fluoro-N-phenethylbenzo[d]thiazol-2-amine] | 26.3 ± 0.91 | 23.1 ± 1.52 | 21.1 ± 2.03 | 18.3 ± 0.93 | – | – | – | –
9 | 4.25 ± 0.16 | – | – | – | – | Fc1ccc2nc(NCc3c(Cl)cccc3Cl)sc2c1 [B2, N-(2,6-dichlorobenzyl)-6-fluorobenzo[d]thiazol-2-amine] | 31.3 ± 1.14 | 18.6 ± 1.67 | 27.5 ± 2.42 | 30.2 ± 2.13 | – | – | – | –
10 | 2.56 ± 0.12 | – | – | – | – | COc1ccc(CNc2nc3ccc(F)cc3s2)cc1OC [B3, N-(3,4-dimethoxybenzyl)-6-fluorobenzo[d]thiazol-2-amine] | 44.6 ± 1.75 | 25.4 ± 2.01 | 32.4 ± 2.92 | 22.4 ± 1.34 | – | – | – | –
11 | 2.67 ± 0.25 | – | – | – | – | O=[N+]([O-])c1ccc(CNc2nc3ccc(F)cc3s2)cc1 [B4, 6-fluoro-N-(4-nitrobenzyl)benzo[d]thiazol-2-amine] | 25 ± 1.62 | 21.4 ± 2.21 | 24.3 ± 1.87 | 19.6 ± 1.32 | – | – | – | –
12 | 3.58 ± 0.11 | 9.26 ± 1.34 | 10.8 ± 0.56 | 5.44 ± 1 | – | Fc1cccc(CNc2nc3ccc(Cl)cc3s2)c1 [B5, 6-chloro-N-(3-fluorobenzyl)benzo[d]thiazol-2-amine] | > 50 | 20.6 ± 1.85 | > 50 | > 50 | 51.34 ± 3.03 | 59.69 ± 3.62 | 58.64 ± 1.01 | –
13 | 3.36 ± 0.18 | – | – | – | – | COc1cc(CNc2nc3ccc(Cl)cc3s2)cc(OC)c1 [B6, 6-chloro-N-(3,5-dimethoxybenzyl)benzo[d]thiazol-2-amine] | 32.8 ± 0.74 | 20.6 ± 1.32 | 43.4 ± 1.61 | 35.2 ± 2.86 | – | – | – | –
14 | 3.56 ± 0.16 | 6.69 ± 0.54 | 5.36 ± 1 | 6.25 ± 0.99 | – | Clc1ccc2nc(NCc3ccccc3)sc2c1 [B8, N-benzyl-6-chlorobenzo[d]thiazol-2-amine] | > 50 | 18.1 ± 3.22 | > 50 | > 50 | 55.22 ± 2.49 | 57.43 ± 3.64 | 65.75 ± 0.96 | –
15 | 2.56 ± 0.14 | – | – | – | – | O=C(Nc1nc2ccc(F)cc2s1)c1ccccc1 [C1, N-(6-fluorobenzo[d]thiazol-2-yl)benzamide] | 28.3 ± 1.25 | 16.3 ± 1.82 | 17.5 ± 1.35 | 19.3 ± 1.07 | – | – | – | –
16 | – | – | – | – | 2.93 ± 0.11 | O=C(Nc1nc2ccc(F)cc2s1)c1c(Cl)cccc1Cl [C2, 2,6-dichloro-N-(6-fluorobenzo[d]thiazol-2-yl) benzamide] | – | – | – | – | 6.80 ± 0.22 | 5.61 ± 0.26 | 0.27 ± 0.12 | 12.82 ± 1.76
17 | 2.49 ± 0.39 | – | – | – | – | COc1ccc(C(=O)Nc2nc3ccc(F)cc3s2)cc1OC [C3, N-(6-fluorobenzo[d]thiazol-2-yl)-3,4-dimethoxybenzamide] | 18 ± 2.52 | 21.3 ± 1.62 | 12.3 ± 1.51 | 4.38 ± 0.35 | – | – | – | –
18 | 3.06 ± 0.23 | – | – | – | – | O=C(Nc1nc2ccc(F)cc2s1)c1ccc([N+](=O)[O-])cc1 [C4, N-(6-fluorobenzo[d]thiazol-2-yl)-4-nitrobenzamide] | 45.2 ± 0.55 | 13.4 ± 1.65 | 43.1 ± 1.45 | 35.3 ± 1.82 | – | – | – | –
19 | 2.87 ± 0.15 | 8.94 ± 1.21 | 4.35 ± 0.9 | 9.82 ± 0.98 | – | COc1ccc(C(=O)Nc2nc3ccc(Cl)cc3s2)cc1 [C5, N-(6-chlorobenzo[d]thiazol-2-yl)-4-methoxybenzamide] | > 50 | 17.2 ± 1.24 | > 50 | > 50 | 51.98 ± 0.24 | 55.67 ± 2.34 | 56.33 ± 2.96 | –
20 | 3.05 ± 0.17 | 9.02 ± 0.37 | 8.4 ± 1.06 | 8.17 ± 0.4 | – | O=C(Nc1nc2ccc(Cl)cc2s1)c1ccccc1 [C6, N-(6-chlorobenzo[d]thiazol-2-yl)benzamide] | > 50 | 20.6 ± 0.52 | > 50 | > 50 | 59.72 ± 1.84 | 57.73 ± 2.12 | 55.56 ± 2.78 | –
21 | 2.9 ± 0.32 | – | – | – | – | O=C(Nc1nc2ccc(Cl)cc2s1)c1ccccc1F [C7, N-(6-chlorobenzo[d]thiazol-2-yl)-2-fluorobenzamide] | 48.28 ± 0.37 | 21.4 ± 2.25 | 40.4 ± 1.33 | 44.6 ± 0.94 | – | – | – | –
22 | 5.69 ± 0.25 | – | – | – | – | COc1cc(CN(Cc2cc(OC)cc(OC)c2)c2nc3ccc(Cl)cc3s2)cc(OC)c1 [D1, 6-chloro-N,N-bis(3,5-dimethoxybenzyl)benzo[d]thiazol-2-amine] | 32.7 ± 1.25 | 19.3 ± 1.31 | 38.7 ± 1.56 | 15.4 ± 3.46 | – | – | – | –
